Results: PubChem BioAssay AID1963831 (Molecular Pharmacology Branch, DTP, NCI, 2024)
Several values for one entry are separate records, joined by “and”; a condition that tells them apart may be missing. Identical values can stand only once.

Test system: 889142-216-R-J1-PDC complex spheroid viability
Assay: Anticancer human tumor 889142-216-R-J1-PDC patient-derived bladder carcinoma cell line growth inhibition [POLQ]
Conditions: for viability, T/C: stronger effect = lower value
Experimental: Multicellular complex tumor spheroid response to Polymerase (POL) inhibitors (novobiocin, ART-558, RP6685) in combination with a variety of drugs and investigational agents in selected tumor cell lines
The POL inhibitors (novobiocin, ART-558, and RP6685) were evaluated both individually and in combination with standard of care and investigational anticancer small molecules within a complex spheroid model of solid tumors. . Complex spheroids include a stromal component modeled by human endothelial cells (HUVEC) and fibroblasts modeled by human mesenchymal stem cells (MSCs). The concentration ranges selected for each drug and investigational agent were based upon clinically achievable concentrations if the clinical Cmax of the agent was known.
Compounds. The drugs and investigational agents: novobiocin (NSC847541), ART-558 (NSC835418), RP-6685 (NSC848927), peposertib (NSC802822), ceralasertib (NSC780249), elimusertib (NSC800525), camonsertib (NSC841442), AZD-1390 (NSC803789), olaparib (NSC753686), talazoparib (NSC767125), rucaparib (NSC756644), sotorasib (NSC818433), MRTX-1133 (NSC836407), SN-38 (NSC673596), topotecan (NSC609699), epotoside (NSC141540), doxorubicin (NSC123127), gemcitabine (NSC613327), 5-fluorouracil (NSC19893), paclitaxel (NSC125973), vemurafenib (NSC761431), MSA-2 (NSC828583), SN-011 (NSC837082), adavosertib (NSC754352), prexasertib (NSC758257), carboplatin (NSC241240) and oxaliplatin (NSC266046), were obtained from the National Cancer Institute (NCI) Developmental Therapeutics Program Chemical Repository (21). The FDA-approved anticancer drug set is available from the Developmental Therapeutics Program at https://dtp.cancer.gov/organization/dscb/obtaining/. […] The stock solutions were prepared in dimethyl sulfoxide (DMSO, Sigma-Aldrich, St. Louis, MO, cat. D2650), except for the platinum compounds which were prepared in saline (Quality Biological, Gaithersburg, MD, cat. 114-055-101), at 800-fold the tested concentration and stored at -70 degrees C prior to their use. All drugs and investigational agents were tested over a range starting from a high concentration at or near the clinical Cmax and decreasing in half-log increments. If the clinical Cmax for an agent had not been determined, the highest concentration tested was 10 microM, except for SN-38, which was tested at a high concentration of 1 microM.
Cell Culture. All cells were maintained in an incubator at 37 degrees C and 5% CO2 with 95% humidity. The PDC lines were cultured according to standard operating procedures established by the NCI PDMR (https://pdmr.cancer.gov). Table 3 of the manuscript, lists the cell lines along with the number of the three cell types plated to form the mct-spheroids and media for tumor cell growth. After thawing, all PDC lines, except 997537-175-T-J1-PDC and 415267-285-R-J2-PDC, were cultured in Matrigel-coated flasks prepared with a working solution of 1X Ham's F-12 nutrient mix, without supplementation (Thermo Fisher Scientific, cat. 11765054), 100 U/mL penicillin-streptomycin (Thermo Fisher Scientific, cat. 15140122), and 2.5% Matrigel (Corning Inc., Corning, NY, cat. 354248) for the first three passages. The two PDC lines 997537-175-T-J1-PDC and 415267-285-R-J2-PDC were cultured on uncoated flasks. The 857933-349-R-J2-PDC line was cultured in 6C/Colon 1B media containing advanced DMEM/F-12 (Thermo Fisher Scientific, cat. 12634028), 10 mM HEPES (Thermo Fisher Scientific, cat. 15630080), 1X GlutaMAX supplement (Thermo Fisher Scientific, cat. 35050061), 0.1 mg/mL primocin (InvivoGen, San Diego, CA, cat. ant-pm-2), 10% defined fetal bovine serum, heat inactivated (HyClone Laboratories Inc., Logan, UT, cat. SH30070.03HI), 50% L-WRN conditioned media (ATCC, cat. CRL-3276), 1.25 mM N-Acetyl-L-cysteine (Sigma-Aldrich, cat. A9165), 10 mM nicotinamide (Sigma-Aldrich, cat. N0636), 1X B-27 supplement (Thermo Fisher Scientific, cat. 17504044), 1X N-2 supplement (Thermo Fisher Scientific, cat. […]
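Further: spheroids exposed to compounds for seven days.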
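Wherever viability, T/C is given: 100% = DMSO vehicle control viability.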

SMILES: O=C(Nc1ccc(O)c(NS(=O)(=O)c2ccc(F)cc2)c1)c1ccc(-c2ccccc2)cc1
- viability, T/C (compound 0.0316 µM): 91.2% and 109% and 105%
- viability, T/C (compound 0.1 µM): 85.2% and 97.7% and 112%
- viability, T/C (compound 0.316 µM): 114% and 129% and 88%
- viability, T/C (compound 1 µM): 112% and 139% and 119%
- viability, T/C (compound 3.16 µM): 101% and 130% and 122%
- viability, T/C (compound 10 µM): 75.8% and 76.8% and 71.4%
- IC50 (curve of compound): > 10000 nM

SMILES: COc1ccc([C@@H](O)c2cc(-c3ncnc4cc(N5CCOCC5)ccc34)c(F)cc2Cl)nn1
- viability, T/C (compound 0.0316 µM): 102% and 95.6% and 99.4%
- viability, T/C (compound 0.1 µM): 109% and 88.8% and 107%
- viability, T/C (compound 0.316 µM): 71.6% and 95% and 74.9%
- viability, T/C (compound 1 µM): 57.8% and 63.2% and 70.5%
- viability, T/C (compound 3.16 µM): 54.7% and 51.1% and 55.4%
- viability, T/C (compound 10 µM): 38.2% and 43.1% and 35.9%
- IC50 (curve of compound): > 10000 nM and 2580 nM and 3900 nM

SMILES: Nc1ccn(C2OC(CO)C(O)C2(F)F)c(=O)n1 (stereo not given)
- viability, T/C (compound 0.0316 µM): 62.2% and 68.3% and 56.9%
- viability, T/C (compound 0.1 µM): 47% and 40.3% and 54.1%
- viability, T/C (compound 0.316 µM): 44.5% and 47.4% and 45%
- viability, T/C (compound 1 µM): 44.4% and 48% and 49%
- viability, T/C (compound 3.16 µM): 44.2% and 42.1% and 40.3%
- viability, T/C (compound 10 µM): 37.1% and 38.8% and 31.7%
- IC50 (curve of compound): 86.1 nM and 73.7 nM and 318 nM

SMILES: Nc1ccn(C2OC(CO)C(O)C2(F)F)c(=O)n1 (stereo not given) + COC1C(OC(N)=O)C(O)C(Oc2ccc3c(O)c(NC(=O)c4ccc(O)c(CC=C(C)C)c4)c(=O)oc3c2C)OC1(C)C
- IC50 (curve of first compound, second compound 0.0316 µM): 830 nM
- IC50 (curve of first compound, second compound 0.1 µM): 225 nM
- IC50 (curve of first compound, second compound 0.316 µM): 202 nM
- IC50 (curve of first compound, second compound 1 µM): 250 nM
- IC50 (curve of first compound, second compound 3.16 µM): 180 nM
- IC50 (curve of first compound, second compound 10 µM): 533 nM
- viability, T/C (second compound 0.0316 µM, first compound 0.0316 µM): 60.8%
- viability, T/C (second compound 0.0316 µM, first compound 0.1 µM): 49.5%
- viability, T/C (second compound 0.0316 µM, first compound 0.316 µM): 51.2%
- viability, T/C (second compound 0.0316 µM, first compound 1 µM): 49.7%
- viability, T/C (second compound 0.0316 µM, first compound 3.16 µM): 43.4%
- viability, T/C (second compound 0.0316 µM, first compound 10 µM): 27.4%
- viability, T/C (second compound 0.1 µM, first compound 0.0316 µM): 78.2%
- viability, T/C (second compound 0.1 µM, first compound 0.1 µM): 60%
- viability, T/C (second compound 0.1 µM, first compound 0.316 µM): 41%
- viability, T/C (second compound 0.1 µM, first compound 1 µM): 43.5%
- viability, T/C (second compound 0.1 µM, first compound 3.16 µM): 42.4%
- viability, T/C (second compound 0.1 µM, first compound 10 µM): 28.4%
- viability, T/C (second compound 0.316 µM, first compound 0.0316 µM): 68.4%
- viability, T/C (second compound 0.316 µM, first compound 0.1 µM): 56.6%
- viability, T/C (second compound 0.316 µM, first compound 0.316 µM): 44.5%
- viability, T/C (second compound 0.316 µM, first compound 1 µM): 38.9%
- viability, T/C (second compound 0.316 µM, first compound 3.16 µM): 43.5%
- viability, T/C (second compound 0.316 µM, first compound 10 µM): 31.8%
- viability, T/C (second compound 1 µM, first compound 0.0316 µM): 64.5%
- viability, T/C (second compound 1 µM, first compound 0.1 µM): 58.3%
- viability, T/C (second compound 1 µM, first compound 0.316 µM): 45.5%
- viability, T/C (second compound 1 µM, first compound 1 µM): 42.1%
- viability, T/C (second compound 1 µM, first compound 3.16 µM): 37.6%
- viability, T/C (second compound 1 µM, first compound 10 µM): 30.3%
- viability, T/C (second compound 3.16 µM, first compound 0.0316 µM): 64.5%
- viability, T/C (second compound 3.16 µM, first compound 0.1 µM): 52.4%
- viability, T/C (second compound 3.16 µM, first compound 0.316 µM): 43.7%
- viability, T/C (second compound 3.16 µM, first compound 1 µM): 43.7%
- viability, T/C (second compound 3.16 µM, first compound 3.16 µM): 38.1%
- viability, T/C (second compound 3.16 µM, first compound 10 µM): 31.4%
- viability, T/C (second compound 10 µM, first compound 0.0316 µM): 72.5%
- viability, T/C (second compound 10 µM, first compound 0.1 µM): 60.2%
- viability, T/C (second compound 10 µM, first compound 0.316 µM): 52.7%
- viability, T/C (second compound 10 µM, first compound 1 µM): 45.3%
- viability, T/C (second compound 10 µM, first compound 3.16 µM): 42.6%
- viability, T/C (second compound 10 µM, first compound 10 µM): 30.5%

SMILES: CC(C)n1c(=O)n(C)c2cnc3cc(F)c(-c4ccc(OCCCN5CCCCC5)nc4)cc3c21
- viability, T/C (compound 0.0316 µM): 78.6% and 82.9% and 98.3%
- viability, T/C (compound 0.1 µM): 101% and 92.7% and 85.2%
- viability, T/C (compound 0.316 µM): 67.3% and 87% and 77.9%
- viability, T/C (compound 1 µM): 63.5% and 85.9% and 71.9%
- viability, T/C (compound 3.16 µM): 56.2% and 77.5% and 64.2%
- viability, T/C (compound 10 µM): 17.9% and 67.2% and 43.8%
- IC50 (curve of compound): 3190 nM and > 10000 nM and 7640 nM
